Results reported in US20220151995A1, “PHARMACEUTICAL COMPOSITION FOR TREATING CANCER AND SUPPRESSING METASTASIS, CONTAINING SULFONAMIDE-BASED COMPOUND AS ACTIVE INGREDIENT” (EXOSTEMTECH CO., LTD, priority 2015, published 2022).

Legend:
[1] = tested on: MDA-MB231-CD63-GFP(+) cells; test: Exosome (CD63-GFP) secretion screening of FDA-approved drugs, supernatant fluorescence; type: cell-based; conditions: 24 h, fluorescence 485/538 nm, % of control group, read-out: exosome inhibition rate (relative fluorescence, of control group)
Description: Among a total of 1,163 FDA-approved drug libraries, drugs effective in inhibiting exosome secretion of the MDA-MB231 triple negative breast cancer cell line were selected by carrying out screening twice. Sulfisoxazole, Sulfadiazine, Sulfathiazole and Ambrisentan, all of which are ETA receptor antagonists, were selected.
The percentage of inhibition rate of exosome secretion was evaluated for each of the selected ETA receptor antagonists. Briefly, MDA-MB231-CD63-GFP(+) cells were incubated with 30 pM of 1,163 individual FDA-approved drugs for 24 h. The fluorescence of each supernatant was measured at 485 nm (excitation) and 538 nm (emission) using a fluorescence microplate reader. Y-axis indicates the inhibition rate of exosome (CD63-GFP), and X-axis indicates the number of FDA-approved drugs.

[2] = tested on: MDA-MB231 cells; test: Cancer cell proliferation, MTT assay; type: cell-based; conditions: 25, 50, 100 and 200 μM; MTT absorbance at 495 nm; compared with the control
Description: After the 12-hour incubation, the cells were treated with sulfisoxazole and sulfadoxine at 25, 50, 100, and 200µM, and then re-treated with the same drugs […]. Thereafter, the cells were treated with MT tetrazolium reagent for each time, and then incubated for […]. After 4 hours, the cell proliferation effect was investigated by measuring the absorbance at 495 nm of reduced MTT formazan (3-(4,5-dimethylthiazol-2-yl)-2,5-diphenyl-tetrazolium bromide). The docetaxel (10µM), which is an anticancer drug currently in use, was used as a control.

[3] = tested on: MDA-MB231 cells; test: Matrigel invasion assay; type: cell-based; conditions: 25, 50, 100 and 200 μM, 48 hours, compared with the controls
Description: A 8[…] insert was placed in a 24-well plate, coated with serum-free medium and Matrigel, and then solidified at 37 for 4 hours. Then, 800µ1 of 10% FBS was added to the lower chamber and 1×10^4 MDA-MB231 cells were added to the upper chamber, followed by treatment with sulfisoxazole or sulfadoxine at 25, 50, 100, and 200µM. After 48 hours, the Matrigel in the insert was removed, followed by washing with PBS, and then the lower chamber was fixed with 60% ethanol, and then stained with crystal violet.

[4] = tested on: MDA-MB231 cells; test: Cancer cell migration, scratch assay (T-scratch); type: cell-based; conditions: 24 hours, medium containing 2% serum; T-scratch quantification
Description: MDA-MB231 cells were seeded in a 24-well plate at 2×10^5 cells/well, and then incubated for 24 hours for the proliferation to a monolayer. After the incubation for 24 hours, the monolayer was straightly scratched with a yellow tip. The cells were washed with PBS to remove floating cells, and then photographed (0 h). Thereafter, a drug was added to a medium containing 2% serum, and then the cells were treated with the medium, and then incubated for 24 hours (24 h). After 24 hours, the cells were photographed for the same site to compare cell migration. The measurement of cell migration was carried out using T-scratch program.

[5] = tested on: A549; test: Cancer exosome secretion, number of exosomes by Nanosight; type: cell-based; conditions: SFX 100 μM and 200 μM, one day; compared to control (DMSO)
Description: After seeding 2×10^6 cells of A549 in T-flask, they were stabilized with growth medium for 24 hours. To isolate cancer exosomes, T-flask was treated with SFX at different concentrations (0, 100, 200 μM), and then lung cancer cells were cultured for one day. After the cell culture medium was collected and filtered, exosomes were separated through ultracentrifugation, and the number of exosomes was determined with Nanosight (FIG. 11).

[6] = tested on: A549 cells; test: Cancer cell proliferation, WST-1 assay; type: cell-based; conditions: 100 μM and 200 μM daily, 72 hours; compared to control (DMSO)
Description: A549 cells were seeded in a 12-well plate at a concentration of 3×10^4 cells/well and then stabilized with growth medium for 24 hours. To evaluate cancer cell growth inhibition, SFX was treated daily at different concentrations (0, 100, 200 μM). After 72 hours, cell growth rate was determined by WST-1 assay (FIG. 13).

[7] = tested on: LLC1 tumor cells
Description: The cancer animal models were prepared on the last day acclimatization. C57BL/6 mice used for the production of LLC1 tumor mouse model were used as experimental animals, and after inoculation of LLC1 tumor cells in the mouse thigh at a concentration of 5×10^5 cells/head, SFX was administered from the time when the tumor volume reached 50 mm^3.
After uniformly mixing the SFX solution prepared for each concentration by vortexing, a sonde for mice was connected to a 1 mL syringe to fill the solution, and 100 μL of the solution was orally administered to each mouse in each group.
Tumor volume was measured daily. The volume of the tumor was measured using a vernier caliper on the major axis and the minor axis, and the height was calculated as ½ the size of the minor axis.
[Tumor volume (mm3)=major axis (mm)×minor axis (mm)×½ of the minor axis]
Mouse body weight was measured every other day from the start of the test, and was measured after oral administration of the drug.

Row | SMILES | activity at 30 pM [1] [%] | proliferation of MDA-MB231 cell lines [2] | invasion of cancer cells [3] | migration of cancer cells [4] | further results
1 | COC(c1ccccc1)(c1ccccc1)[C@H](Oc1nc(C)cc(C)n1)C(=O)O [ambrisentan, Ambrisentan] | 101 | – | – | – | –
2 | Nc1ccc(S(=O)(=O)Nc2ncccn2)cc1 [sulfadiazine, Sulfadiazine] | 89.9 | – | – | – | –
3 | COc1ncnc(NS(=O)(=O)c2ccc(N)cc2)c1OC [sulfadoxine] | – | significantly inhibited | significantly inhibited | inhibited dependent on the concentration | –
4 | Nc1ccc(S(=O)(=O)Nc2nccs2)cc1 [sulfathiazole, Sulfathiazole] | 93.8 | – | – | – | –
5 | Cc1noc(NS(=O)(=O)c2ccc(N)cc2)c1C [sulfisoxazole] | 60.8 | inhibited dependent on the concentration | significantly inhibited | inhibited dependent on the concentration | level of cancer exosome secretion [5]: significantly reduced; A549 cell growth [6]: inhibited in a concentration-dependent manner; tumor weight ([7]; 200 and 400 mg/kg orally, end of the experiment, compared to vehicle group): tendency to decrease; mice that died (survival) ([7]; oral SFX administration for each concentration): no mice that died; body weight of the animals ([7]; oral SFX administration, measured every other day): did not show a significant change
